Consider four molecules from ChEMBL document CHEMBL1151124, “Photodiode Array Detection and Structures of Griseolic Acid Analogues from Culture Broth” (J Nat Prod, 1988).

Calls of active or inactive are those of the source. The calls are words filed in the database; no cut-off is given here.

A short description of this test: Inhibition of cAMP-specific 3',5'-cyclic phosphodiesterase.

Regarding `Nc1ncnc2c1ncn2[C@@H]1OC2=C[C@@](C(=O)O)(C(O)C(=O)O)O[C@H]2[C@H]1O` (some centres undefined), the result was Active.

Turning to `Nc1ncnc2c1ncn2[C@@H]1OC2=C[C@](CC(=O)O)(C(=O)O)O[C@H]2[C@H]1O`, the result was Active. For `Nc1ncnc2c1ncn2[C@@H]1O[C@@H]2C[C@](CC(=O)O)(C(=O)O)O[C@H]2[C@H]1O`, the result was Active. As to `Nc1ncnc2c1ncn2[C@@H]1O[C@H](C[C@@H](CC(=O)O)C(=O)O)[C@@H](O)[C@H]1O`, the result was inactive.
